The text below walks through data of patent US10030027B2, “Soluble guanylate cyclase stimulators” (MERCK SHARP & DOHME CORP., priority 2015, dated 2018).

One experiment deals with sGC α1/β1 heterodimer (Homo sapiens (Human), UniProt Q02108+Q02153). Description: Cell-based sGC functional assay (cyclic GMP assay for sGC activator: CASA assay). As to conditions: CHO-K1/sGC cells; for Emax: CHO-K1, activity expressed as percentage of compound A (standard), read-out: % Activation; for EC50: inflection point, 4P fit, read-out: IP. A digest of the protocol:
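CHO-K1 cells stably expressing human sGC α1/β1 were pre-incubated 30 min at 25° C with or without 1 μM DETA-NO, then exposed to compound for 1 hr at 37° C with 0.5 mM IBMX and 2.5% DMSO final. Intracellular cGMP was measured by HTRF, expressed as % of reference sGC-HDA maximum; inflection point and maximum fold induction came from 4-parameter fits.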

The target of experiment [1] is human recombinant sGC enzyme (Homo sapiens (Human), UniProt Q02108+Q02153). Kind of experiment: Size Exclusion Chromatography (SEC) competition binding assay using [3H] Ex-77B as the radioligand. As to conditions: [3H] Ex-77B radioligand, 24 hours at 37° C. A digest of the protocol:
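Recombinant human sGC binding measured by competition against tritiated Ex-77B radioligand, with non-specific binding defined by 1 μM unlabeled Ex-77B.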

Turning to `CC(C)(CCc1coc(C2(C)C(=O)Nc3nc(-c4nn(Cc5ccccc5F)c5cc(F)ccc45)nc(N)c32)n1)C(=O)O` (stereo not drawn) [Example 193B, 4-(2-{4-amino-2-[6-fluoro-1-(2-fluorobenzyl)-1H-indazol-3-yl]-5-methyl-6-oxo-6,7-dihydro-5H-pyrrolo[2,3-d]pyrimidin-5-yl}-1,3-oxazol-4-yl)-2,2-dimethyl-butanoic acid], at sGC α1/β1 heterodimer, the Emax is 89.2% and the EC50 amounted to 69 nM. Besides, the Ki in experiment [1] was 0.052 nM.

Turning to `CC(C)(Cc1csc([C@]2(C)C(=O)Nc3nc(-c4nn(Cc5cccc(F)c5)c5cc(F)ccc45)nc(N)c32)n1)C(=O)O` [Example 194A, (S)-3-(2-{4-amino-2-[6-fluoro-1-(3-fluorobenzyl)-1H-indazol-3-yl]-5-methyl-6-oxo-6,7-dihydro-5H-pyrrolo[2,3-d]pyrimidin-5-yl}-1,3-thiazol-4-yl)-2,2-dimethyl-propanoic acid], at sGC α1/β1 heterodimer, the Emax was found to be 128% and the EC50 was determined as 73 nM. In experiment [1], the inhibitory constant (Ki) was found to be 0.041 nM.

Consider `CC(C)(CCc1csc(C2(C)C(=O)Nc3nc(-c4nn(Cc5cccc(F)c5)c5cc(F)ccc45)nc(N)c32)n1)C(=O)O` (stereo not drawn) [Example 196A, 4-(2-{4-amino-2-[6-fluoro-1-(3-fluorobenzyl)-1H-indazol-3-yl]-5-methyl-6-oxo-6,7-dihydro-5H-pyrrolo[2,3-d]pyrimidin-5-yl}-1,3-thiazol-4-yl)-2,2-dimethyl-butanoic acid], for which, at sGC α1/β1 heterodimer, the Emax worked out at 90.3% and the EC50 is 54 nM. Moreover, the inhibitory constant (Ki) in experiment [1] was 0.468 nM.

As to `CC(C)(CCc1coc(C2(C)C(=O)Nc3nc(-c4nn(Cc5cccc(F)c5)c5cc(F)ccc45)nc(N)c32)n1)C(=O)O` (stereo not drawn) [Example 197B, 4-(2-{4-amino-2-[6-fluoro-1-(3-fluorobenzyl)-1H-indazol-3-yl]-5-methyl-6-oxo-6,7-dihydro-5H-pyrrolo[2,3-d]pyrimidin-5-yl}-1,3-oxazol-4-yl)-2,2-dimethyl-butanoic acid], at sGC α1/β1 heterodimer, the Emax stood at 106% and the EC50 came out at 125 nM. Besides, the inhibition constant Ki in experiment [1] worked out at 0.162 nM.

Take `Cc1oc(C2(C)C(=O)Nc3nc(-c4nn(Cc5cccc(F)c5)c5cc(F)ccc45)nc(N)c32)nc1CC(C)(C)C(=O)O` (stereo not drawn) [Example 198B, 3-(2-{4-amino-2-[6-fluoro-1-(3-fluorobenzyl)-1H-indazol-3-yl]-5-methyl-6-oxo-6,7-dihydro-5H-pyrrolo[2,3-d]pyrimidin-5-yl}-5-methyl-1,3 - oxazol-4-yl)-2,2-dimethyl-propanoic acid]: at sGC α1/β1 heterodimer, the Emax is 134% and the EC50 worked out at 1070 nM. In addition, the Ki in experiment [1] is 0.107 nM.

As for `CC(C)(Cc1csc([C@]2(C)C(=O)Nc3nc(-c4nn(Cc5cccc(F)c5F)c5cc(F)ccc45)nc(N)c32)n1)C(=O)O` [Example 199A, (S)-3-(2-{4-amino-2-[1-(2,3-difluorobenzyl)-6-fluoro-1H-indazol-3-yl]-5-methyl-6-oxo-6,7-dihydro-5H-pyrrolo[2,3-d]pyrimidin-5-yl}-1,3-thiazol-4-yl)-2,2-dimethyl-propanoic acid], on sGC α1/β1 heterodimer, the Emax stood at 108% and the EC50 was 66 nM. In addition, in experiment [1], the Ki was found to be 0.07 nM.

With `CC(C)(Cc1coc(C2(C)C(=O)Nc3nc(-c4nn(Cc5cccc(F)c5F)c5cc(F)ccc45)nc(N)c32)n1)C(=O)O` (stereo not drawn) [Example 200A, 3-(2-{4-amino-2-[1-(2,3-difluoro-benzyl)-6-fluoro-1H-indazol-3-yl]-5-methyl-6-oxo-6,7-dihydro-5H-pyrrolo[2,3-d]pyrimidin-5-yl}-1,3-oxazol-4-yl)-2,2-dimethyl-propanoic acid], on sGC α1/β1 heterodimer, the Emax came out at 120% and the EC50 worked out at 220 nM. Further, the Ki in experiment [1] was determined as 0.052 nM.

As for `CC(C)(Cc1csc([C@]2(C)C(=O)Nc3nc(-c4nn(CC5CCCCC5)c5cc(F)ccc45)nc(N)c32)n1)C(=O)O` [Example 201A, (S)-3-(2-{4-amino-2-[1-(cyclohexyl-methyl)-6-fluoro-1H-indazol-3-yl]-5-methyl-6-oxo-6,7-dihydro-5H-pyrrolo[2,3-d]pyrimidin-5-yl}-1,3-thiazol-4-yl)-2,2-dimethyl-propanoic acid], at sGC α1/β1 heterodimer, the Emax worked out at 91.2% and the EC50 is 39 nM. Besides, the Ki in experiment [1] amounted to 0.151 nM.

As to `CC1(c2nc(CC(=O)O)co2)C(=O)Nc2nc(-c3nn(Cc4ccccc4F)c4ccccc34)nc(N)c21` (stereo not drawn) [Example 203A, (2-{4-amino-2-[1-(2-fluorobenzyl)-1H-indazol-3-yl]-5-methyl-6-oxo-6,7-dihydro-5H-pyrrolo[2,3-d]pyrimidin-5-yl}-1,3-oxazol-4-yl)acetic acid], at sGC α1/β1 heterodimer, the Emax came out at 122% and the EC50 came to 330 nM. For the same compound, the Ki in experiment [1] turned out to be 0.071 nM.

Regarding `CC(C)(CCc1csc(C2(C)C(=O)Nc3nc(-c4nn(Cc5ccccc5F)c5ccccc45)nc(N)c32)n1)C(=O)O` (stereo not drawn) [Example 204A, 4-(2-{4-amino-2-[1-(2-fluorobenzyl)-1H-indazol-3-yl]-5-methyl-6-oxo-6,7-dihydro-5H-pyrrolo[2,3-d]pyrimidin-5-yl}-1,3-thiazol-4-yl)-2,2-dimethyl-butanoic acid], at sGC α1/β1 heterodimer, the Emax stood at 97.8% and the EC50 worked out at 47 nM. In addition, in experiment [1], the inhibition constant Ki was determined as 0.269 nM.

`CC(C)(CCc1coc(C2(C)C(=O)Nc3nc(-c4nn(Cc5ccccc5F)c5ncccc45)nc(N)c32)n1)C(=O)O` (stereo not drawn) [Example 206B, 4-(2-{4-amino-2-[1-(2-fluorobenzyl)-1H-pyrazolo[3,4-b]pyridin-3-yl]-5-methyl-6-oxo-6,7-dihydro-5H-pyrrolo[2,3-d]pyrimidin-5-yl}-1,3-oxazol-4-yl)-2,2-dimethyl-butanoic acid]: at sGC α1/β1 heterodimer, the Emax came out at 113% and the EC50 came out at 549 nM. Besides, the Ki in experiment [1] was determined as 0.798 nM.

As to `CC(C)(CCc1coc(C2(C)C(=O)Nc3nc(-c4nn(Cc5ncccc5F)c5cc(Cl)ccc45)nc(N)c32)n1)C(=O)O` (stereo not drawn) [Example 207B, 4-{2-[4-amino-2-{6-chloro-1-[(3-fluoropyridin-2-yl)methyl]-1H-indazol-3-yl}-5-methyl-6-oxo-6,7-dihydro-5H-pyrrolo[2,3-d]pyrimidin-5-yl]-1,3-oxazol-4-yl}-2,2-dimethyl-butanoic acid], on sGC α1/β1 heterodimer, the Emax came to 100% and the EC50 was 1760 nM. In experiment [1], the Ki came out at 0.095 nM.

On to `CC(C)(C)CCn1nc(-c2nc(N)c3c(n2)NC(=O)C3(C)c2nc(CC(C)(C)C(=O)O)co2)c2ccc(Cl)cc21` (stereo not drawn) [Example 208A, 3-(2-{4-amino-2-[6-chloro-1-(3,3-dimethylbutyl)-1H-indazol-3-yl]-5-methyl-6-oxo-6,7-dihydro-5H-pyrrolo[2,3-d]pyrimidin-5-yl}-1,3-oxazol-4-yl)-2,2-dimethyl-propanoic acid], for which, at sGC α1/β1 heterodimer, the Emax was found to be 101% and the EC50 is 453 nM. For the same compound, the Ki in experiment [1] was determined as 0.253 nM.

On to `CC1(c2ccc(C(=O)O)cc2)C(=O)Nc2nc(-c3nn(Cc4ccccc4F)c4cc(Cl)ccc34)nc(N)c21` (stereo not drawn) [Example 209B, 4-{4-amino-2-[6-chloro-1-(2-fluorobenzyl)-1H-indazol-3-yl]-5-methyl-6-oxo-6,7-dihydro-5H-pyrrolo[2,3-d]pyrimidin-5-yl} benzoic acid], for which, at sGC α1/β1 heterodimer, the Emax is 94.4% and the EC50 was 2480 nM. Besides, in experiment [1], the Ki is 1.64 nM.

Turning to `CC(C)(C)CCn1nc(-c2nc(N)c3c(n2)NC(=O)[C@@]3(C)c2ccc(CCC(=O)O)cc2)c2cccnc21` [Example 210B, (S)-3-(4-{4-amino-2-[1-(3,3-dimethylbutyl)-1H-pyrazolo[3,4-b]pyridin-3-yl]-5-methyl-6-oxo-6,7-dihydro-5H-pyrrolo[2,3-d]pyrimidin-5-yl}phenyl)propanoic acid], on sGC α1/β1 heterodimer, the Emax was 103% and the EC50 is 2020 nM. Further, the Ki in experiment [1] turned out to be 0.341 nM.

In the case of `Cc1cccc(Cn2nc(-c3nc(N)c4c(n3)NC(=O)C4(C)c3cnn(CC(C)(C)C(=O)O)c3)c3ccc(F)cc32)c1F` (stereo not drawn) [Example 211A, 3-(4-{4-amino-2-[6-fluoro-1-(2-fluoro-3-methyl-benzyl)-1H-indazol-3-yl]-5-methyl-6-oxo-6,7-dihydro-5H-pyrrolo[2,3-d]pyrimidin-5-yl}-1H-pyrazol-1-yl)-2,2-dimethyl-propanoic acid], at sGC α1/β1 heterodimer, the Emax is 96.2% and the EC50 came to 1180 nM. For the same compound, the Ki in experiment [1] was 0.258 nM.

On to `Cc1ccc(F)c(Cn2nc(-c3nc(N)c4c(n3)NC(=O)C4(C)c3nc(CC(C)(C)C(=O)O)co3)c3ccc(Cl)cc32)c1` (stereo not drawn) [Example 213A, 3-(2-{4-amino-2-[6-chloro-1-(2-fluoro-5-methyl-benzyl)-1H-indazol-3-yl]-5-methyl-6-oxo-6,7-dihydro-5H-pyrrolo[2,3-d]pyrimidin-5-yl} 1,3-oxazol-4-yl)-2,2-dimethyl-propanoic acid], for which, at sGC α1/β1 heterodimer, the Emax turned out to be 94.9% and the EC50 was determined as 839 nM. The Ki in experiment [1] came to 0.123 nM.

Consider `Cc1ccnc(Cn2nc(-c3nc(N)c4c(n3)NC(=O)C4(C)c3nc(CC(C)(C)C(=O)O)co3)c3ccc(Cl)cc32)c1F` (stereo not drawn) [Example 215A, 3-(2-{4-amino-2-[6-chloro-1-((3-fluoro-4-methyl-pyridin-2-yl)methyl)-1H-indazol-3-yl]-5-methyl-6-oxo-6,7-dihydro-5H-pyrrolo[2,3-d]pyrimidin-5-yl} 1,3-oxazol-4-yl)-2,2-dimethyl-propanoic acid], for which, at sGC α1/β1 heterodimer, the Emax stood at 119% and the EC50 turned out to be 3700 nM. For the same compound, the Ki in experiment [1] was 0.189 nM.

Broadly, the Ki is the equilibrium dissociation constant of an inhibitor or competing ligand from its target.
